“Also recorded” adds a separate entry of the source.

Consider one substance from publication PMC8955854, “The Peptide Hormone CNMa Influences Egg Production in the Mosquito Aedes aegypti” (Insects, 2022).

Experiment [1] relates to ecdysteroid-responsive gene e74. Put plainly: e74 transcript abundance (qPCR) after injection into females. Format: in vivo, Aedes aegypti. The settings on record: CNMa or saline injected females, qPCR relative to AS-treated, MANOVA e74: F3,19 = 0.8192, p = 0.50. As for the experimental part:
(§1) Cohorts of female Ae. aegypti were sampled 8 to 10 days post-eclosion, pre-blood meal (NBF), then at 2, 4, 6, 8, 12, 24, 48, and 72 h PBM. Four or more females from each timepoint were dissected in cold, RNase-free PBS into head, midgut, ovaries, and abdominal body wall and fat body (“pelt”). Tissue samples were immediately frozen and stored at −80 °C. Tissues were thawed on ice, homogenized with a rotor type pestle, and then total RNA was extracted using the RNeasy Mini kit (Qiagen, Venlo, The Netherlands) according to the manufacturer’s instructions. RNA was treated with DNase using the Turbo DNA-free kit (Ambion, Austin, TX, USA). cDNA was synthesized from 100 ng of RNA with the iScript cDNA synthesis kit (BioRad, Hercules, CA, USA) and used as template in qPCR using the Quantifast SYBR Green PCR kit (Qiagen). The primers for each product are listed in Table S1. qPCR was performed on the Qiagen Rotorgene as described in [28]. Absolute standard curves were produced by cloning each qPCR product into the pSCA vector using the Strataclone PCR cloning kit (Agilent, Santa Clara, CA, USA) and preparing plasmid standards of a known copy number. For comparisons between mating status, the copy number of each target was normalized to the copy number of ribosomal protein S7.
(§2) For e74, expression is relative to e74 expression in AS-treated insects.
A general note: Quantitative PCR measures a nucleic acid by following its amplification.

For another experiment, the target named is AeCNMaR-1b (AAEL018316) (Aedes aegypti, UniProt A0A1S4G7J8). Put plainly: Receptor activation, aequorin luminescence in CHO-K1 aeq cells expressing AeCNMaR-1b. The format is cell-based. The note with it: AeCNMaR-1b. An excerpt: The CNMa peptide was synthesized and HPLC purified (>90% purity) by Royobiotechs (Shanghai, China) based on the published sequence of the AeCNMa peptide sequence. Both the amidated (YMSLCHFKLCNMa) and the non-amidated (YMSLCHFKLCNM) were produced with a disulfide bridge between cysteines 5 and 10. The complete coding sequence of the two putative Ae. aegypti CNMa receptors (VectorBase genes AAEL024199 and AAEL018316, which we henceforth refer to as AeCNMaR-1a and AeCNMaR-1b, respectively) were commercially synthesized (Integrated DNA Technologies) and subsequently subcloned into a pcDNA3.1+ mammalian expression vector [24]. A Chinese hamster ovary cell line stably expressing the calcium-dependent bioluminescent protein aequorin (CHO-K1 aeq) was grown in Dulbecco’s modified eagles medium: nutrient F12 (DMEM:F12) media containing 10% heat-inactivated fetal bovine serum (FBS; Wisent, St. Bruno, QC, Canada), 200 μg/mL geneticin, and an antimycotic-antibiotic mixture as described previously. […]
Chain of AeCNMaR-1b (AAEL018316) (A0A1S4G7J8 entry or part of it): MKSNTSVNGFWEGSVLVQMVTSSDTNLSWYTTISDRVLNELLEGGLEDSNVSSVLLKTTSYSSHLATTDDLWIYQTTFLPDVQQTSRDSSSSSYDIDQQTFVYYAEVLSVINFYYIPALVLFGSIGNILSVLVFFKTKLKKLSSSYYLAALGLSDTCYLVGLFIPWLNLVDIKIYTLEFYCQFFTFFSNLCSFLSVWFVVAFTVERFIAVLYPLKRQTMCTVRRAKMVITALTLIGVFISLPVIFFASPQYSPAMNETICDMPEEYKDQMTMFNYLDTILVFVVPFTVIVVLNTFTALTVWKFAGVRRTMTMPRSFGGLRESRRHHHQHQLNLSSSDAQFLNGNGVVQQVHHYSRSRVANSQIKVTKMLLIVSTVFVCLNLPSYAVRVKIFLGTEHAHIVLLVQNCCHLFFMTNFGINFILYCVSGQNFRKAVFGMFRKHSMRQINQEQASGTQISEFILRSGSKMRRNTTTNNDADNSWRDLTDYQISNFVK
Other Ae. aegypti peptides used in this study included “capability” (CAPA)-1 (GPTVGLFAFPRV-NH2), CAPA-2 (pQGLVPFPRV-NH2), AedaeCAPA-pyrokinin (PK) 1 (AGNSGANSGMWFGPRL-NH2), adipokinetic/corazonin-like peptide (ACP; pQVTFSRDWNA-NH2), adipokinetic hormone (AKH) (pQLTFTPSW-NH2), and corazonin (CRZ; pQTFQYSRGWTN-NH2). […] Single concentrations of the various peptides were loaded into individual wells of white 96-well luminescence plates (Greiner Bio-One, Frickenhausen, Germany) with each peptide concentration tested in quadruplicate. CHO-K1 aeq cells expressing either of the two AeCNMa receptors or mCherry were prepared for the functional assay, as described above, and injected into each well of the 96-well luminescence plates by an automated injector unit integrated with the Synergy 2 Multi-Mode Microplate Reader (BioTek, Winooski, VT, USA). The kinetic luminescent response was measured for 10 s immediately following the application of the cells into the wells containing the different peptide treatments or the negative (i.e., BSA media alone) or positive (i.e., 50 μM ATP) controls as described previously. Data was assembled in Microsoft Excel and then analyzed in GraphPad Prism 7.02 (GraphPad Software, San Diego, CA, USA) where the dose–response curves from multiple biological replicates were used to determine the half maximal effective concentrations (EC50).

Another experiment concerns the target AeCNMaR-1a (AAEL024199) (Aedes aegypti, UniProt A0A6I8U3V2). Put plainly: Receptor activation, aequorin luminescence in CHO-K1 aeq cells expressing AeCNMaR-1a. The format is cell-based. The text has this: The CNMa peptide was synthesized and HPLC purified (>90% purity) by Royobiotechs (Shanghai, China) based on the published sequence of the AeCNMa peptide sequence. Both the amidated (YMSLCHFKLCNMa) and the non-amidated (YMSLCHFKLCNM) were produced with a disulfide bridge between cysteines 5 and 10. The complete coding sequence of the two putative Ae. aegypti CNMa receptors (VectorBase genes AAEL024199 and AAEL018316, which we henceforth refer to as AeCNMaR-1a and AeCNMaR-1b, respectively) were commercially synthesized (Integrated DNA Technologies) and subsequently subcloned into a pcDNA3.1+ mammalian expression vector [24]. A Chinese hamster ovary cell line stably expressing the calcium-dependent bioluminescent protein aequorin (CHO-K1 aeq) was grown in Dulbecco’s modified eagles medium: nutrient F12 (DMEM:F12) media containing 10% heat-inactivated fetal bovine serum (FBS; Wisent, St. Bruno, QC, Canada), 200 μg/mL geneticin, and an antimycotic-antibiotic mixture as described previously. When cells reached 80–90% confluency, they were transfected using Lipofectamine 3000 transfection reagent following manufacturer recommendations (Life Technologies, Burlington, ON, Canada) to transiently express a mammalian construct in pcDNA3.1+ containing either of the two candidate CNMa receptors or mCherry (pcDNA3.1+ mCherry was a gift from Scott Gradia, Addgene plasmid #30125), the latter of which served as a negative control for the receptor functional assay. After 48 h following transfection, CHO-K1 aeq cells were harvested by dislodging from culture flasks using Dulbecco’s PBS containing EDTA and subsequently resuspended in receptor assay media.
Other Ae. aegypti peptides used in this study included “capability” (CAPA)-1 (GPTVGLFAFPRV-NH2), CAPA-2 (pQGLVPFPRV-NH2), AedaeCAPA-pyrokinin (PK) 1 (AGNSGANSGMWFGPRL-NH2), adipokinetic/corazonin-like peptide (ACP; pQVTFSRDWNA-NH2), adipokinetic hormone (AKH) (pQLTFTPSW-NH2), and corazonin (CRZ; pQTFQYSRGWTN-NH2). Serial dilutions of the peptide stocks were prepared in bovine serum albumin (BSA) assay media (DMEM:F12 media + 0.1% BSA + 1× antibiotic-antimycotic) to test concentrations ranging from 10 pM to 50 μM. Single concentrations of the various peptides were loaded into individual wells of white 96-well luminescence plates (Greiner Bio-One, Frickenhausen, Germany) with each peptide concentration tested in quadruplicate. CHO-K1 aeq cells expressing either of the two AeCNMa receptors or mCherry were prepared for the functional assay, as described above, and injected into each well of the 96-well luminescence plates by an automated injector unit integrated with the Synergy 2 Multi-Mode Microplate Reader (BioTek, Winooski, VT, USA). The kinetic luminescent response was measured for 10 s immediately following the application of the cells into the wells containing the different peptide treatments or the negative (i.e., BSA media alone) or positive (i.e., 50 μM ATP) controls as described previously. Data was assembled in Microsoft Excel and then analyzed in GraphPad Prism 7.02 (GraphPad Software, San Diego, CA, USA) where the dose–response curves from multiple biological replicates were used to determine the half maximal effective concentrations (EC50).

The test system of experiment [2] is CHO K1 aeq mCherry-expressing cells. Put plainly: Negative control: luminescence in CHO-K1 aeq cells expressing mCherry. Format: cell-based, Chinese hamster. The note with it: 1 µM peptide; CHO K1 aeq cells transfected with pcDNA3.1+ mCherry. The text has this: The CNMa peptide was synthesized and HPLC purified (>90% purity) by Royobiotechs (Shanghai, China) based on the published sequence of the AeCNMa peptide sequence. Both the amidated (YMSLCHFKLCNMa) and the non-amidated (YMSLCHFKLCNM) were produced with a disulfide bridge between cysteines 5 and 10. The complete coding sequence of the two putative Ae. aegypti CNMa receptors (VectorBase genes AAEL024199 and AAEL018316, which we henceforth refer to as AeCNMaR-1a and AeCNMaR-1b, respectively) were commercially synthesized (Integrated DNA Technologies) and subsequently subcloned into a pcDNA3.1+ mammalian expression vector [24]. […]
Other Ae. aegypti peptides used in this study included “capability” (CAPA)-1 (GPTVGLFAFPRV-NH2), CAPA-2 (pQGLVPFPRV-NH2), AedaeCAPA-pyrokinin (PK) 1 (AGNSGANSGMWFGPRL-NH2), adipokinetic/corazonin-like peptide (ACP; pQVTFSRDWNA-NH2), adipokinetic hormone (AKH) (pQLTFTPSW-NH2), and corazonin (CRZ; pQTFQYSRGWTN-NH2). […] Single concentrations of the various peptides were loaded into individual wells of white 96-well luminescence plates (Greiner Bio-One, Frickenhausen, Germany) with each peptide concentration tested in quadruplicate. […]

Another experiment concerns Ae. aegypti females. Put plainly: Egg laying after injection into mated, blood-fed females. Format: in vivo, Aedes aegypti. How it is done:
(§3) Three- to five-day-old mated females were blood-fed as detailed above, and groups were injected with a range of CNMa in 0.5 μL of saline or saline alone (AS) for a control. Females were allowed to recover and then housed individually in mesh cages. At 3 d PBM, a wet paper towel was provided to the females to facilitate egg laying for up to 48 h and then the number of eggs was counted. To assess possible interactions of CNMa with OEH and ILP3, mated females were blood-fed then decapitated and injected at 1 h PBM with 150 pmol of CNMa, OEH, or ILP3, or combinations of each hormone. Ovaries were dissected at 24 h PBM and yolk deposition was measured along the anterior–posterior axis for five oocytes from each individual, using an ocular micrometer fitted to a dissecting microscope. For CNMa and JH experiments, pupae were isolated in eclosion chambers for 6 h and females were collected. Females were divided into two groups, one which was immediately injected with 150 pmol of CNMa or saline. The other half of the cohort was held for an additional 8 h then injected with the same solutions. At 3 d post-eclosion, females were blood-fed and oviposition was measured for all treatment groups.
Figure 5 AeCNMa reduces egg clutch size in mated Ae. aegypti females. […] After three days females were allowed to oviposit and eggs were counted 48 h later. […]

Experiment [3] concerns JH-responsive gene kruppel-homolog 1 (kh-1). Kind of experiment: kh-1 transcript abundance (qPCR) after injection into females. The settings on record: CNMa or saline injected females. The format is in vivo, Aedes aegypti. As for the experimental part: as §1, §2
In experiment [4] the test system is Ae. aegypti females (decapitated). Kind of experiment: Yolk deposition in blood-fed decapitated females. The format is in vivo, Aedes aegypti. As for the experimental part: as §3
Average amount of yolk per oocyte in mated, blood fed, decapitated females injected with combinations of CNMa (150 pmol), ILP3 (20 pmol), and OEH (20 pmol), Aedes saline (AS), or not injected (intact or decapitation only) at one-hour post blood meal. Error bars show one standard error above and below the mean.

Chain of AeCNMaR-1a (AAEL024199) (A0A6I8U3V2 entry or part of it): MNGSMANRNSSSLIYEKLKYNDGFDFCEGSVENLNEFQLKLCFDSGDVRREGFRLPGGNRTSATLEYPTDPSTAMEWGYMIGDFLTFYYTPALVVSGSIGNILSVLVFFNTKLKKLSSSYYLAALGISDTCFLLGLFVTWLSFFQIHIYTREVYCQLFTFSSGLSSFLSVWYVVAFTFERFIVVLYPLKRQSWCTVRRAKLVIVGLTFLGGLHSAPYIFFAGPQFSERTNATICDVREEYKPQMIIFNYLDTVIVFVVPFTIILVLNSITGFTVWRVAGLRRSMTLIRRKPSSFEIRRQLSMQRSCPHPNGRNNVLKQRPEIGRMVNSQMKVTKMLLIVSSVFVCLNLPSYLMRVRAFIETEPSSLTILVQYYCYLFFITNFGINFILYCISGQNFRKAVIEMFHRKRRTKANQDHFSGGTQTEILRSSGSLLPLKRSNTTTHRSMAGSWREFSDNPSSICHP

“YMSLCHFKLCNMa (disulfide) [AeCNMa, Ae. aegypti CNMa peptide, amidated, HPLC purified (>90% purity)]”: the entries for the “e74 expression vs saline” value in experiment [1] and in experiment [1] (listed as CNMa) were “no significant difference in their expression” and “did not significantly impact expression”, respectively. Further, the “greater sensitivity for the amidated peptide” value on AeCNMaR-1b (AAEL018316) (amidated AeCNMa vs non-amidated AeCNM) came to 2.4 fold. Moreover, the “luminescent response vs BSA media background” value at AeCNMaR-1b (AAEL018316) (peptides tested at 1 µM, raw luminescence, one-way ANOVA and Dunnett's test) is reported as “significant response several orders of magnitude over the BSA media background luminescent response”; at AeCNMaR-1a (AAEL024199) (AeCNMaR-1a, peptides tested at 1 µM, raw luminescence, one-way ANOVA and Dunnett's test), “significant response several orders of magnitude over the BSA media background luminescent response”. The “lower concentration activating AeCNMaR-1a than AeCNMaR-1b” value at AeCNMaR-1a (AAEL024199) (AeCNMaR-1a vs AeCNMaR-1b) is given as ~ 10 fold. For the same substance, the “increase in sensitivity for the amidated peptide” value at AeCNMaR-1a (AAEL024199) (AeCNMaR-1a, amidated AeCNMa vs non-amidated AeCNM) was found to be 9 fold. Also, the “luminescence in mCherry-expressing control cells” value in experiment [2] was “No luminescence was detected”. Moreover, the “number of eggs laid vs controls” value in the experiment with Ae. aegypti females (150 pmol injected immediately post blood meal, mated, eggs counted after 3 d + 48 h oviposition, control Aedes saline (AS)) is recorded as “laid significantly fewer eggs than controls; also recorded: produced significantly fewer eggs than controls (p = 0.0087, Wilcoxon rank-sum test)”. Further, in the experiment with Ae. aegypti females (injection into mated), the “optimal dose (dose-response assay)” value amounted to 150 pmol. The “kh-1 expression vs saline” value in experiment [3] (MANOVA kh-1: F1,20 = 0.5141, p = 0.68) is given as “no significant difference in their expression”; in experiment [3] (MANOVA kh-1: F1,20 = 0.5141, p = 0.68, listed as CNMa), “did not significantly impact expression”. Also, the “yolk uptake, CNMa only” value in experiment [4] (CNMa 150 pmol at 1 h post blood meal, decapitated females, vs decapitated only and AS control, Tukey's HSD) is “not significantly different from decapitated only and AS control treatments”. The “yolk uptake, CNMa and ILP3” value in experiment [4] (CNMa 150 pmol, ILP3 20 pmol at 1 h post blood meal, vs ILP3 only and ILP3 and OEH, Tukey's HSD) is listed as “no significant difference in yolk uptake”. Also, in experiment [4] (CNMa 150 pmol, ILP3 20 pmol, OEH 20 pmol at 1 h post blood meal, vs ILP3 + OEH injected females, Tukey's HSD), the “yolk uptake, CNMa + OEH + ILP3” value was “no significant difference in yolk uptake”. Further, the “yolk uptake, OEH + CNMa” value in experiment [4] (CNMa 150 pmol, OEH 20 pmol at 1 h post blood meal, vs OEH only or OEH + ILP3, Tukey's HSD) was “no significant difference in yolk uptake relative to OEH only or OEH + ILP3 treatments”. Also, the “effect on yolk deposition elicited by OEH, ILP3, or both peptides together” value in experiment [4] (decapitated blood-fed females, co-injection) was “did not affect yolk deposition elicited by OEH, ILP3, or both peptides together”.
